EP1247803A2, “Indolinone compounds suitable for modulation of protein kinases” (Sugen, Inc., priority 1996, dated 1998)

Target: T1, EGFR (Homo sapiens, UniProt P00533)
T1 construct: Add 7 ug A431 cell lysate per well (EGFR source); endogenous in cells; host or cells: A431
Test: EGFR ELISA assay (in vitro kinase activity, EGFR captured from A431 cell lysate)
Format: biochemical
Set-up: concentration or dose not given beside the values
Method in brief: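 EGFR from A431 lysate was captured on anti-EGFR antibody-coated plates and preincubated with compounds for 30 min. Autophosphorylation ran 5 min with 3 uM ATP and 5 mM MnCl2 (final), stopped with 20 mM EDTA. Phosphotyrosine was detected by anti-pTyr ELISA with ABTS/H2O2, read at 410 nm.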

T1 sequence (P00533 25-1210): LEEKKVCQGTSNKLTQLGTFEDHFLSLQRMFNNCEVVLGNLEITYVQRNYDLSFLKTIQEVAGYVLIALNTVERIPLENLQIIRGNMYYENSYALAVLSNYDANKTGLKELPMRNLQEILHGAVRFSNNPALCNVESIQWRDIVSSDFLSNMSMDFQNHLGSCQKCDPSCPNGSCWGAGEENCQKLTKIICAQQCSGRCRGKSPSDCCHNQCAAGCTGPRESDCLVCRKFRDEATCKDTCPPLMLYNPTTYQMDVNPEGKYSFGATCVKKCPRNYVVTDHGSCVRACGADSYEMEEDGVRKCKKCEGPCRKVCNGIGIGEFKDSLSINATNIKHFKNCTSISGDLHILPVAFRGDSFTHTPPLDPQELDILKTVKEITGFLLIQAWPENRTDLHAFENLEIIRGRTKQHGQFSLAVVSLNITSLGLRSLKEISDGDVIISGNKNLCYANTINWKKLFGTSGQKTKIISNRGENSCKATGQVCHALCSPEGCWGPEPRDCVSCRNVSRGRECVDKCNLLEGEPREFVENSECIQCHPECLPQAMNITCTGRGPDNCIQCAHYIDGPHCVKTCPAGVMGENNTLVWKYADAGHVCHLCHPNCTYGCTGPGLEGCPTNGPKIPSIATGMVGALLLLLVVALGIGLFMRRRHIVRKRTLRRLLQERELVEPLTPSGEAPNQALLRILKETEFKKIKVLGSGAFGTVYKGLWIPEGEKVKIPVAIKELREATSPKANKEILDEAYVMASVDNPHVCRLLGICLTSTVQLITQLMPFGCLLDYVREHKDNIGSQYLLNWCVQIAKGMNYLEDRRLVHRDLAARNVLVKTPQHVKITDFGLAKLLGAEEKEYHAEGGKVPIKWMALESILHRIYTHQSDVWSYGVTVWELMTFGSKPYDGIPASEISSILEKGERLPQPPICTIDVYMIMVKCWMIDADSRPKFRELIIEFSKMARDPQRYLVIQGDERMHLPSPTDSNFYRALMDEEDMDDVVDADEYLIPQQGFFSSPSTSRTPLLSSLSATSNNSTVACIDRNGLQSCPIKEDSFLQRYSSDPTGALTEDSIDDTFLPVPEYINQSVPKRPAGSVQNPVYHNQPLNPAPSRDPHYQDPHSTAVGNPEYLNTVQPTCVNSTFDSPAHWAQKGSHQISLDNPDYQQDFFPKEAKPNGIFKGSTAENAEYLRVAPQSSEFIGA

| SMILES | Biochem EGFR %Inhibition |
| --- | --- |
| O=C1Nc2c(Br)cc(Br)cc2C1=Cc1c[nH]c2ccccc12 [10717/A06] | -7.8% |
| Cn1cccc1C=C1C(=O)Nc2ccc(CCCl)cc21 [10717/G04] | 6.0% |
| O=C1Nc2ccc(CCCl)cc2C1=Cc1ccc(F)cc1 [10717/G05] | -0.1% |
| O=C1Nc2ccc(CCCl)cc2C1=Cc1c[nH]c2ccccc12 [10717/G06] | -3.4% |
| Cc1ccc(C=C2C(=O)Nc3ccc(CCCl)cc32)s1 [10717/G07] | 13.1% |
| O=C1Nc2ccc(CCCl)cc2C1=Cc1ccc(Br)cc1 [10717/G08] | 36.4% |
| O=C1Nc2ccc(CCCl)cc2C1=Cc1ccc[nH]1 [10717/G09] | 24.9% |
| COc1cccc(O)c1C=C1C(=O)Nc2ccc(CCCl)cc21 [10717/G10] | 2.4% |
| Cc1c(Br)ccc2c1C(=C1C(=O)Nc3ccc(F)cc31)C(=O)N2 [10726/C08] | 7.5% |
| Cc1c(Br)ccc2c1C(=C1C(=O)Nc3ccccc31)C(=O)N2 [10726/C09] | -14.3% |
| CCc1ccc(C=C2C(=O)Nc3ccc(Br)c(C)c32)s1 [10726/C10] | 2.8% |
| COc1ccc(C=C2C(=O)Nc3ccc(Br)c(C)c32)cc1 [10726/C11] | 4.8% |
| CCOC(=O)c1[nH]c(C=C2C(=O)Nc3ccc(S(=O)(=O)NC)cc32)c(C(=O)OC)c1C [10726/D03] | -5.4% |
| CNS(=O)(=O)c1ccc2c(c1)C(=Cc1cc(C)c(O)c(C(C)(C)C)c1)C(=O)N2 [10726/D04] | -20.1% |
| CNS(=O)(=O)c1ccc2c(c1)C(=Cc1ccc(Br)o1)C(=O)N2 [10726/D05] | -8.1% |
| CNS(=O)(=O)c1ccc2c(c1)C(=Cc1cn(C)cc1C)C(=O)N2 [10726/D06] | -24.4% |
| CNS(=O)(=O)c1ccc2c(c1)C(=Cc1cc(O)c3c(c1O)CCCC3)C(=O)N2 [10726/D07] | 18.5% |
| CNS(=O)(=O)c1ccc2c(c1)C(=C1C(=O)Nc3ccc(F)cc31)C(=O)N2 [10726/D08] | -11.4% |
| CNS(=O)(=O)c1ccc2c(c1)C(=C1C(=O)Nc3ccccc31)C(=O)N2 [10726/D09] | -6.5% |
| CCc1ccc(C=C2C(=O)Nc3ccc(S(=O)(=O)NC)cc32)s1 [10726/D10] | -6.5% |
| CNS(=O)(=O)c1ccc2c(c1)C(=Cc1ccc(OC)cc1)C(=O)N2 [10726/D11] | -6.3% |
| CCOC(=O)c1[nH]c(C=C2C(=O)Nc3ccc(S(=O)(=O)Nc4ccc(C(F)(F)F)cc4)cc32)c(C(=O)OC)c1C [10726/E03] | -15.9% |
| Cc1cc(C=C2C(=O)Nc3ccc(S(=O)(=O)Nc4ccc(C(F)(F)F)cc4)cc32)cc(C(C)(C)C)c1O [10726/E04] | 53.0% |
| O=C1Nc2ccc(S(=O)(=O)Nc3ccc(C(F)(F)F)cc3)cc2C1=Cc1ccc(Br)o1 [10726/E05] | 5.5% |
| Cc1cn(C)cc1C=C1C(=O)Nc2ccc(S(=O)(=O)Nc3ccc(C(F)(F)F)cc3)cc21 [10726/E06] | -20.6% |
| O=C1Nc2ccc(S(=O)(=O)Nc3ccc(C(F)(F)F)cc3)cc2C1=Cc1cc(O)c2c(c1O)CCCC2 [10726/E07] | 20.5% |
| O=C1Nc2ccc(F)cc2C1=C1C(=O)Nc2ccc(S(=O)(=O)Nc3ccc(C(F)(F)F)cc3)cc21 [10726/E08] | -8.5% |

| SMILES | Biochem EGFR %Inhibition |
| --- | --- |
| O=C1Nc2ccccc2C1=C1C(=O)Nc2ccc(S(=O)(=O)Nc3ccc(C(F)(F)F)cc3)cc21 [10726/E09] | 10.0% |
| CCc1ccc(C=C2C(=O)Nc3ccc(S(=O)(=O)Nc4ccc(C(F)(F)F)cc4)cc32)s1 [10726/E10] | -9.0% |
| COc1ccc(C=C2C(=O)Nc3ccc(S(=O)(=O)Nc4ccc(C(F)(F)F)cc4)cc32)cc1 [10726/E11] | -14.1% |
| CCOC(=O)c1[nH]c(C=C2C(=O)Nc3ccc(S(=O)(=O)N4CCOCC4)cc32)c(C(=O)OC)c1C [10726/F03] | -17.4% |
| Cc1cc(C=C2C(=O)Nc3ccc(S(=O)(=O)N4CCOCC4)cc32)cc(C(C)(C)C)c1O [10726/F04] | 33.4% |
| O=C1Nc2ccc(S(=O)(=O)N3CCOCC3)cc2C1=Cc1ccc(Br)o1 [10726/F05] | -26.8% |
| Cc1cn(C)cc1C=C1C(=O)Nc2ccc(S(=O)(=O)N3CCOCC3)cc21 [10726/F06] | -24.1% |
| O=C1Nc2ccc(S(=O)(=O)N3CCOCC3)cc2C1=Cc1cc(O)c2c(c1O)CCCC2 [10726/F07] | 76.2% |
| O=C1Nc2ccc(F)cc2C1=C1C(=O)Nc2ccc(S(=O)(=O)N3CCOCC3)cc21 [10726/F08] | -21.5% |
| O=C1Nc2ccccc2C1=C1C(=O)Nc2ccc(S(=O)(=O)N3CCOCC3)cc21 [10726/F09] | -22.8% |
| CCc1ccc(C=C2C(=O)Nc3ccc(S(=O)(=O)N4CCOCC4)cc32)s1 [10726/F10] | -17.4% |
| COc1ccc(C=C2C(=O)Nc3ccc(S(=O)(=O)N4CCOCC4)cc32)cc1 [10726/F11] | -16.8% |
| CCOC(=O)c1[nH]c(C=C2C(=O)Nc3ccc(CCCl)cc32)c(C(=O)OC)c1C [10726/G03] | -17.2% |
| Cc1cc(C=C2C(=O)Nc3ccc(CCCl)cc32)cc(C(C)(C)C)c1O [10726/G04] | 60.6% |
| O=C1Nc2ccc(CCCl)cc2C1=Cc1ccc(Br)o1 [10726/G05] | 5.1% |
| Cc1cn(C)cc1C=C1C(=O)Nc2ccc(CCCl)cc21 [10726/G06] | -37.5% |
| O=C1Nc2ccc(CCCl)cc2C1=Cc1cc(O)c2c(c1O)CCCC2 [10726/G07] | 54.4% |
| O=C1Nc2ccc(F)cc2C1=C1C(=O)Nc2ccc(CCCl)cc21 [10726/G08] | -2.7% |
| O=C1Nc2ccccc2C1=C1C(=O)Nc2ccc(CCCl)cc21 [10726/G09] | 3.3% |
| CCc1ccc(C=C2C(=O)Nc3ccc(CCCl)cc32)s1 [10726/G10] | 6.0% |
| COc1ccc(C=C2C(=O)Nc3ccc(CCCl)cc32)cc1 [10726/G11] | 1.3% |
| CCN(CC)c1ccc(C=C2C(=O)Nc3c(Br)cc(Br)cc32)cc1 [10727/A02] | 3.2% |
| CCc1cc(CC)c(C=C2C(=O)Nc3c(Br)cc(Br)cc32)[nH]1 [10727/A03] | -19.2% |
| O=C1Nc2c(Br)cc(Br)cc2C1=Cc1cc(Cl)cc(Br)c1O [10727/A04] | 28.2% |
| O=C1Nc2c(Br)cc(Br)cc2C1=Cc1ccccc1Sc1ccc(Cl)cc1 [10727/A05] | -3.0% |
| O=C1Nc2c(Br)cc(Br)cc2C1=Cc1cc2c(cc1Cl)OCO2 [10727/A06] | -6.3% |
| O=C1Nc2c(Br)cc(Br)cc2C1=Cc1coc2ccccc2c1=O [10727/A07] | -3.7% |

| SMILES | Biochem EGFR %Inhibition |
| --- | --- |
| N#Cc1cccc(C=C2C(=O)Nc3c(Br)cc(Br)cc32)c1 [10727/A08] | 9.7% |
| N#Cc1ccc(C=C2C(=O)Nc3c(Br)cc(Br)cc32)cc1 [10727/A09] | 12.7% |
| O=C1Nc2c(Br)cc(Br)cc2C1=Cc1cc(O)ccc1O [10727/A10] | 89.0% |
| COc1cccc(C=C2C(=O)Nc3c(Br)cc(Br)cc32)c1OC [10727/A11] | 6.2% |
| CCN(CC)c1ccc(C=C2C(=O)Nc3ccc(I)cc32)cc1 [10727/B02] | -18.4% |
| CCc1cc(CC)c(C=C2C(=O)Nc3ccc(I)cc32)[nH]1 [10727/B03] | -2.8% |
| O=C1Nc2ccc(I)cc2C1=Cc1cc(Cl)cc(Br)c1O [10727/B04] | 47.4% |
| O=C1Nc2ccc(I)cc2C1=Cc1ccccc1Sc1ccc(Cl)cc1 [10727/B05] | 39.0% |
| O=C1Nc2ccc(I)cc2C1=Cc1cc2c(cc1Cl)OCO2 [10727/B06] | 40.7% |
| O=C1Nc2ccc(I)cc2C1=Cc1coc2ccccc2c1=O [10727/B07] | 46.5% |
| N#Cc1cccc(C=C2C(=O)Nc3ccc(I)cc32)c1 [10727/B08] | 47.4% |
| N#Cc1ccc(C=C2C(=O)Nc3ccc(I)cc32)cc1 [10727/B09] | 31.7% |
| O=C1Nc2ccc(I)cc2C1=Cc1cc(O)ccc1O [10727/B10] | 94.0% |
| COc1cccc(C=C2C(=O)Nc3ccc(I)cc32)c1OC [10727/B11] | 6.9% |
| CCN(CC)c1ccc(C=C2C(=O)Nc3ccc(Br)c(C)c32)cc1 [10727/C02] | -28.5% |
| CCc1cc(CC)c(C=C2C(=O)Nc3ccc(Br)c(C)c32)[nH]1 [10727/C03] | 14.6% |
| Cc1c(Br)ccc2c1C(=Cc1cc(Cl)cc(Br)c1O)C(=O)N2 [10727/C04] | 27.6% |
| Cc1c(Br)ccc2c1C(=Cc1ccccc1Sc1ccc(Cl)cc1)C(=O)N2 [10727/C05] | 11.8% |
| Cc1c(Br)ccc2c1C(=Cc1cc3c(cc1Cl)OCO3)C(=O)N2 [10727/C06] | 5.6% |
| Cc1c(Br)ccc2c1C(=Cc1coc3ccccc3c1=O)C(=O)N2 [10727/C07] | 8.4% |
| Cc1c(Br)ccc2c1C(=Cc1cccc(C#N)c1)C(=O)N2 [10727/C08] | 3.6% |
| Cc1c(Br)ccc2c1C(=Cc1ccc(C#N)cc1)C(=O)N2 [10727/C09] | 16.6% |
| Cc1c(Br)ccc2c1C(=Cc1cc(O)ccc1O)C(=O)N2 [10727/C10] | 85.3% |
| COc1cccc(C=C2C(=O)Nc3ccc(Br)c(C)c32)c1OC [10727/C11] | -15.6% |
| CCN(CC)c1ccc(C=C2C(=O)Nc3ccc(S(=O)(=O)NC)cc32)cc1 [10727/D02] | 22.6% |
| CCc1cc(CC)c(C=C2C(=O)Nc3ccc(S(=O)(=O)NC)cc32)[nH]1 [10727/D03] | 39.4% |
